{"source": "ChEMBL document CHEMBL4390652", "about": "“Design, biological evaluation and X-ray crystallography of nanomolar multifunctional ligands targeting simultaneously acetylcholinesterase and glycogen synthase kinase-3” (Eur J Med Chem, 2019)", "key": {"[1]": {"tested_on": "Epidermal growth factor receptor (Homo sapiens), P00533 [L858R]", "experiment": "Binding affinity to human partial length EGFR L858R mutant (R669 to V1011 residues) expressed in bacterial expression system assessed as residual binding level at 10 uM by Kinomescan method relative to control"}, "[2]": {"target": "cAMP-dependent protein kinase catalytic subunit alpha (Homo sapiens) (UniProt P17612)", "experiment": "Binding affinity to wild-type human partial length PKAC-alpha (G10 to F351 residues) expressed in bacterial expression system assessed as residual binding level at 10 uM by Kinomescan method relative to control"}, "[3]": {"tested_on": "Tyrosine-protein kinase ABL1 (Homo sapiens), P00519 [F317L]", "sequence (P00519 whole entry F317L, the tested form may be a part)": "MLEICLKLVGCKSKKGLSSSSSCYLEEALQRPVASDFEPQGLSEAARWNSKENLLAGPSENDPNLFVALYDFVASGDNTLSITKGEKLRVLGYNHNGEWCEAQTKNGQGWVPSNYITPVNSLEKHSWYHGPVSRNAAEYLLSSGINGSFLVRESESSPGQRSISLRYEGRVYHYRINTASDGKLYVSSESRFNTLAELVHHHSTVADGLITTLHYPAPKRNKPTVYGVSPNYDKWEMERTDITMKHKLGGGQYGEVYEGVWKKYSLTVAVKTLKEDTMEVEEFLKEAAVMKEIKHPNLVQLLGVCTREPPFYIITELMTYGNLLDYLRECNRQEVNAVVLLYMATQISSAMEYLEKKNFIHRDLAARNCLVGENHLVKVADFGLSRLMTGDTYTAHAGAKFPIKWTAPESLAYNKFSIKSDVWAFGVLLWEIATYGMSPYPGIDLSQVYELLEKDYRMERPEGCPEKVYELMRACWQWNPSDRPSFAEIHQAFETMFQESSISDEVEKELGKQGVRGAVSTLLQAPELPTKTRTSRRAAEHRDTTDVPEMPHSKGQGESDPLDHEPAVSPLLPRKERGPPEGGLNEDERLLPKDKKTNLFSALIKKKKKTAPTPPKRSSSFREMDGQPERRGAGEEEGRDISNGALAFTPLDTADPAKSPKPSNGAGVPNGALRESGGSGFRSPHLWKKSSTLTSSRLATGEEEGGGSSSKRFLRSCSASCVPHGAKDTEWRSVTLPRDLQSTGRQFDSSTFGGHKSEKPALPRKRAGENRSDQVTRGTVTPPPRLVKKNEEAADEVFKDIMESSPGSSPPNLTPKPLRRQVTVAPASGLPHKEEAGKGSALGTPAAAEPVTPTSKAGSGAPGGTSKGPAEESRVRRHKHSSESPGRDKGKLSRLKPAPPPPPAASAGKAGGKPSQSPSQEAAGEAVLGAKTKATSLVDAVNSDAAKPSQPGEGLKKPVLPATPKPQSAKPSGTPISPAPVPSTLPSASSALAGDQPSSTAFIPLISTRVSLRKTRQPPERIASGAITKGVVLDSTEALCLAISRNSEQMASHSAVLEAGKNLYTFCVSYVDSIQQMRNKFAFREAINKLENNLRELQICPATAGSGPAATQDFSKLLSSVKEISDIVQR", "experiment": "Binding affinity to human phosphorylated ABL1 F317L mutant (S229 to K512 residues) expressed in mammalian expression system assessed as residual binding level at 10 uM by Kinomescan method relative to control"}, "[4]": {"target": "Ephrin type-A receptor 1 (Homo sapiens) (UniProt P21709)", "experiment": "Binding affinity to wild-type human partial length EPHA1 (V588 to I913 residues) expressed in bacterial expression system assessed as residual binding level at 10 uM by Kinomescan method relative to control"}, "[5]": {"target": "Tyrosine-protein kinase Lyn (Homo sapiens) (UniProt P07948)", "sequence (P07948 2-512 limits assumed)": "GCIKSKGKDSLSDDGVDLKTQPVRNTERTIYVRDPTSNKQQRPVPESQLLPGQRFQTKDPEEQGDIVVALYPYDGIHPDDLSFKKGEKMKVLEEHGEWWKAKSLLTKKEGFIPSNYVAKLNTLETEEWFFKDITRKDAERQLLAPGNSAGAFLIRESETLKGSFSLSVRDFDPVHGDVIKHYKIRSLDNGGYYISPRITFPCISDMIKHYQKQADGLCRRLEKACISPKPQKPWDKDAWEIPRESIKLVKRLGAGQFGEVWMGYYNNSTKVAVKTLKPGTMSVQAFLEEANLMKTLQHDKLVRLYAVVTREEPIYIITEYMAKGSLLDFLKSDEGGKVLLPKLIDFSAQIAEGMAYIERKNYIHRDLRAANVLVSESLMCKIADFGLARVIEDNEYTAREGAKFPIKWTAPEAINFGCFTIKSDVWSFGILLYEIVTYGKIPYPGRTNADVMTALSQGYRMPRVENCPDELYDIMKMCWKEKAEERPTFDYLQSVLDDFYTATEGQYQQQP", "experiment": "Binding affinity to wild-type human partial length LYN (C219 to Q511 residues) expressed in bacterial expression system assessed as residual binding level at 10 uM by Kinomescan method relative to control"}, "[6]": {"target": "Ephrin type-A receptor 5 (Homo sapiens) (UniProt P54756)", "experiment": "Binding affinity to wild-type human partial length EPHA5 (T627 to V930 residues) expressed in bacterial expression system assessed as residual binding level at 10 uM by Kinomescan method relative to control"}, "[7]": {"target": "Cyclin-dependent kinase 17 (Homo sapiens) (UniProt Q00537)", "experiment": "Binding affinity to wild-type human full length PCTK2 (M1 to F523 residues) expressed in bacterial expression system assessed as residual binding level at 10 uM by Kinomescan method relative to control"}, "[8]": {"target": "Mitotic checkpoint serine/threonine-protein kinase BUB1 (Homo sapiens) (UniProt O43683)", "experiment": "Binding affinity to wild-type human partial length BUB1 (Q724 to K1085 residues) expressed in mammalian expression system assessed as residual binding level at 10 uM by Kinomescan method relative to control"}, "[9]": {"target": "TGF-beta receptor type-2 (Homo sapiens) (UniProt P37173)", "sequence (P37173 whole entry, the tested form may be a part)": "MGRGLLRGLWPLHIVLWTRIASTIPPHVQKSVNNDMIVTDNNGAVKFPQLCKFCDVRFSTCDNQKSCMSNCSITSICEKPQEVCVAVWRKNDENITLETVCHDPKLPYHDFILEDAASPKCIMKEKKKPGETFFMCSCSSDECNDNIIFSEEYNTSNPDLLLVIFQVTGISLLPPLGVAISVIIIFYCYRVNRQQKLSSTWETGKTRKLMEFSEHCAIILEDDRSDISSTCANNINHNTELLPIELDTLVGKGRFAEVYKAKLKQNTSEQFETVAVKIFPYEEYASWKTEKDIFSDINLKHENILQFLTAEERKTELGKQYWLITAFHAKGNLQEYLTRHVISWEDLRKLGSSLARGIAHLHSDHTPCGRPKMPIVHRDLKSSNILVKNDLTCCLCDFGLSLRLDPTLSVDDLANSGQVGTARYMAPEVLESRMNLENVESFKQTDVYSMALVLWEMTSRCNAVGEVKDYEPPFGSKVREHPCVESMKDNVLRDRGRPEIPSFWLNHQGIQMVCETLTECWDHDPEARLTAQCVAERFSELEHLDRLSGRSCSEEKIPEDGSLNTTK", "experiment": "Binding affinity to wild-type human partial length TGFBR2 (I218 to K567 residues) expressed in bacterial expression system assessed as residual binding level at 10 uM by Kinomescan method relative to control"}, "[10]": {"target": "Serine/threonine-protein kinase DCLK1 (Homo sapiens) (UniProt O15075)", "sequence (O15075 whole entry, the tested form may be a part)": "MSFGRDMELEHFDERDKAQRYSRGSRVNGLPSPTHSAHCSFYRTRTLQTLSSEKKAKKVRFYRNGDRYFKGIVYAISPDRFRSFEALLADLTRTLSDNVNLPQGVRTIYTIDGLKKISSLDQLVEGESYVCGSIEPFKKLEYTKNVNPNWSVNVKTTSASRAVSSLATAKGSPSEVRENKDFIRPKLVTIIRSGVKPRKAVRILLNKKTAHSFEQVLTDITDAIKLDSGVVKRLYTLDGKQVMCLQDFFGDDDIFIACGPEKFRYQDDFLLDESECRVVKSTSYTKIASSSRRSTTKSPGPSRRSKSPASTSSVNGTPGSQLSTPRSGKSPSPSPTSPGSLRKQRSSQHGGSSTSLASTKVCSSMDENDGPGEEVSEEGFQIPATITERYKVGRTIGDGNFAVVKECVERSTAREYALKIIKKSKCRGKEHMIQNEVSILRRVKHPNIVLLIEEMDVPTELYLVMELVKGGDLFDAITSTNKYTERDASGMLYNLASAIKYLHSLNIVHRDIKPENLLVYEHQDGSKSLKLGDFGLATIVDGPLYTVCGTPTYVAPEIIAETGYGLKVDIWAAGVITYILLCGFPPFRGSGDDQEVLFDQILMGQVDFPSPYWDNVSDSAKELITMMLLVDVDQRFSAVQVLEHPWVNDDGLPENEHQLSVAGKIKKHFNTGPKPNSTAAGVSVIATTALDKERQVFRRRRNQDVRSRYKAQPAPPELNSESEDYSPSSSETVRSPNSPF", "experiment": "Binding affinity to wild-type human partial length DCAMKL1 (L270 to A662 residues) expressed in mammalian expression system assessed as residual binding level at 10 uM by Kinomescan method relative to control"}, "[11]": {"tested_on": "Epidermal growth factor receptor (Homo sapiens), P00533 [L858R,T790M]", "experiment": "Binding affinity to human partial length EGFR L858R/T790M double mutant (R669 to V1011 residues) expressed in mammalian expression system assessed as residual binding level at 10 uM by Kinomescan method relative to control"}, "[12]": {"target": "Mitogen-activated protein kinase 6 (Homo sapiens) (UniProt Q16659)", "sequence (Q16659 whole entry, the tested form may be a part)": "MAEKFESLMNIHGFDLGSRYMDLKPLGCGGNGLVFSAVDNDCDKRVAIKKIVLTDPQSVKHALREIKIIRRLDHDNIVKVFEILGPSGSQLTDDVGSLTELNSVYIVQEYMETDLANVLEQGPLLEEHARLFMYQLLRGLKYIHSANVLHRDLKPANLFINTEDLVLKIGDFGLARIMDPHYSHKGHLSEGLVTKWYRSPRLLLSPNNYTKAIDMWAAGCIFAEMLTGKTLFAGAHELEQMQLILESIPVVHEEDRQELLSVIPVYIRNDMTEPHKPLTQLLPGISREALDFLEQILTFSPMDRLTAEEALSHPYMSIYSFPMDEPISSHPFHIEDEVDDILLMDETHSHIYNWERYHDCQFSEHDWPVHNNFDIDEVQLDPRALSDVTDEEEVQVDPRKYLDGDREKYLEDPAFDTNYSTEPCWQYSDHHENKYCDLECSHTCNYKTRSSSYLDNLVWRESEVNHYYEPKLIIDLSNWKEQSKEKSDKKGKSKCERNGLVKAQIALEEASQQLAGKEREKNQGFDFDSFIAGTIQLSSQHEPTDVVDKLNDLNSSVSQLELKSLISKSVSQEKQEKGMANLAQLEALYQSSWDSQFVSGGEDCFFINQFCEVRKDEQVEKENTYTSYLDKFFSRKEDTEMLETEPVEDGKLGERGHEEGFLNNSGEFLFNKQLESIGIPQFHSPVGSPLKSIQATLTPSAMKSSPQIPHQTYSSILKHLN", "experiment": "Binding affinity to wild-type human partial length ERK3 (M1 to P413 residues) expressed in bacterial expression system assessed as residual binding level at 10 uM by Kinomescan method relative to control"}, "[13]": {"target": "Ephrin type-A receptor 8 (Homo sapiens) (UniProt P29322)", "sequence (P29322 whole entry, the tested form may be a part)": "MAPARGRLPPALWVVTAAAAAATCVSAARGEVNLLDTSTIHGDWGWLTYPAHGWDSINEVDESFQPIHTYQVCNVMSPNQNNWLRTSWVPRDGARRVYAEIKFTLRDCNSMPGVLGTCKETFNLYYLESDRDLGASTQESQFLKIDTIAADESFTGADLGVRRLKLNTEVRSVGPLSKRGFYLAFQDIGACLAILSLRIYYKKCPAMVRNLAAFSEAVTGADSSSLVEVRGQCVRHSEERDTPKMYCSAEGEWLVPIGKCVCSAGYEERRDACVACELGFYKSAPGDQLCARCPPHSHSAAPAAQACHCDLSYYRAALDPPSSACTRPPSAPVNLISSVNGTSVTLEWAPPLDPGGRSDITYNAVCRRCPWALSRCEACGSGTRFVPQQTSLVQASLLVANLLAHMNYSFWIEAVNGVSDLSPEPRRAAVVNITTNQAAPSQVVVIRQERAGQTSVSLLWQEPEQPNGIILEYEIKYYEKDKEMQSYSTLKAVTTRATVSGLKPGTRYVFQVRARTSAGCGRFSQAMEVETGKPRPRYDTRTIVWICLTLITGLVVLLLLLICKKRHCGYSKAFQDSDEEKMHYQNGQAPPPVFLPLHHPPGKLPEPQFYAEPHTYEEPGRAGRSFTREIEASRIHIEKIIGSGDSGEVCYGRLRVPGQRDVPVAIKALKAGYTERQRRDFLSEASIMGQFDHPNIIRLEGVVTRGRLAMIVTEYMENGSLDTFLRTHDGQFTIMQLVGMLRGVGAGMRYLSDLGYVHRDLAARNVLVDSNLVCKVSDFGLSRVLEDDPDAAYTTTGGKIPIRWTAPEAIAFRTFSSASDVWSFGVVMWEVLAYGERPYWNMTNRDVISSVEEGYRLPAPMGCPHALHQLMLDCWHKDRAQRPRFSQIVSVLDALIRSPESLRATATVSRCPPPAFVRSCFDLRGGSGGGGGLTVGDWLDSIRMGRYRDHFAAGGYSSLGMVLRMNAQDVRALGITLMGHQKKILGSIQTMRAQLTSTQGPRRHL", "experiment": "Binding affinity to wild-type human partial length EPHA8 (Q608 to C920 residues) expressed in bacterial expression system assessed as residual binding level at 10 uM by Kinomescan method relative to control"}, "[14]": {"target": "Serine/threonine-protein kinase N2 (Homo sapiens) (UniProt Q16513)", "experiment": "Binding affinity to wild-type human partial length PKN2 (E634 to C984 residues) expressed in bacterial expression system assessed as residual binding level at 10 uM by Kinomescan method relative to control"}, "[15]": {"target": "Citron Rho-interacting kinase (Homo sapiens) (UniProt O14578)", "experiment": "Binding affinity to wild-type human partial length CIT (M68 to E432 residues) expressed in bacterial expression system assessed as residual binding level at 10 uM by Kinomescan method relative to control"}, "[16]": {"target": "Cyclin-dependent kinase-like 5 (Homo sapiens) (UniProt O76039)", "experiment": "Binding affinity to wild-type human partial length CDKL5 (M1 to S337 residues) expressed in mammalian expression system assessed as residual binding level at 10 uM by Kinomescan method relative to control"}, "[17]": {"target": "5'-AMP-activated protein kinase catalytic subunit alpha-2 (Homo sapiens) (UniProt P54646)", "experiment": "Binding affinity to wild-type human partial length AMPK alpha2 (M1 to E306 residues) expressed in bacterial expression system assessed as residual binding level at 10 uM by Kinomescan method relative to control"}, "[18]": {"target": "Cyclin-dependent kinase 11A (Homo sapiens) (UniProt Q9UQ88)", "experiment": "Binding affinity to wild-type human partial length CDC2L2 (D391 to K730 residues) expressed in bacterial expression system assessed as residual binding level at 10 uM by Kinomescan method relative to control"}, "[19]": {"target": "Tyrosine-protein kinase ABL1 (Homo sapiens) (UniProt P00519)", "sequence (P00519 whole entry, the tested form may be a part)": "as the sequence (P00519 whole entry F317L, the tested form may be a part) above, with L317F counted along it", "experiment": "Binding affinity to wild-type human non-phosphorylated ABL1 (S229 to K512 residues) expressed in mammalian expression system assessed as residual binding level at 10 uM by Kinomescan method relative to control"}, "[20]": {"target": "Serine/threonine-protein kinase MARK2 (Homo sapiens) (UniProt Q7KZI7)", "experiment": "Binding affinity to wild-type human partial length MARK2 (M1 to R450 residues) expressed in bacterial expression system assessed as residual binding level at 10 uM by Kinomescan method relative to control"}, "[21]": {"tested_on": "Mast/stem cell growth factor receptor Kit (Homo sapiens), P10721 [D816H]", "experiment": "Binding affinity to human partial length KIT D816H mutant (I571 to D952 residues) expressed in mammalian expression system assessed as residual binding level at 10 uM by Kinomescan method relative to control"}, "[22]": {"target": "Dual specificity tyrosine-phosphorylation-regulated kinase 1A (Homo sapiens) (UniProt Q13627)", "experiment": "Binding affinity to wild-type human partial length DYRK1A (H129 to S509 residues) expressed in mammalian expression system assessed as residual binding level at 10 uM by Kinomescan method relative to control"}, "[23]": {"tested_on": "Receptor-type tyrosine-protein kinase FLT3 (Homo sapiens), P36888 [K663Q]", "experiment": "Binding affinity to human partial length FLT3 K663Q mutant (V592 to Y969 residues) expressed in bacterial expression system assessed as residual binding level at 10 uM by Kinomescan method relative to control"}, "[24]": {"target": "Ribosomal protein S6 kinase alpha-2 (Homo sapiens) (UniProt Q15349)", "experiment": "Binding affinity to wild-type human partial length C-terminal RSK3 kinase domain 2 (V403 to K700 residues) expressed in bacterial expression system assessed as residual binding level at 10 uM by Kinomescan method relative to control"}}}
{"smiles": "O=C(Nc1cc(-c2cn(CCNc3c4c(nc5ccccc35)CCCC4)nn2)ccn1)Nc1cccc2c1C1CCCCN1C2=O", "note": "(racemic)", "values": [{"measurement": "Activity", "setting": "[1]", "result": 80, "unit": "%"}, {"measurement": "Activity", "setting": "[2]", "result": 100, "unit": "%"}, {"measurement": "Activity", "setting": "[3]", "result": 20, "unit": "%"}, {"measurement": "Activity", "setting": "[4]", "result": 60, "unit": "%"}, {"measurement": "Activity", "setting": "[5]", "result": 83, "unit": "%"}, {"measurement": "Activity", "setting": "[6]", "result": 81, "unit": "%"}, {"measurement": "Activity", "setting": "[7]", "result": 4.2, "unit": "%"}, {"measurement": "Activity", "setting": "[8]", "result": 6.4, "unit": "%"}, {"measurement": "Activity", "setting": "[9]", "result": 19, "unit": "%"}, {"measurement": "Activity", "setting": "[10]", "result": 82, "unit": "%"}, {"measurement": "Activity", "setting": "[11]", "result": 87, "unit": "%"}, {"measurement": "Activity", "setting": "[12]", "result": 8.7, "unit": "%"}, {"measurement": "Activity", "setting": "[13]", "result": 80, "unit": "%"}, {"measurement": "Activity", "setting": "[14]", "result": 4.8, "unit": "%"}, {"measurement": "Activity", "setting": "[15]", "result": 0.95, "unit": "%"}, {"measurement": "Activity", "setting": "[16]", "result": 0.35, "unit": "%"}, {"measurement": "Activity", "setting": "[17]", "result": 15, "unit": "%"}, {"measurement": "Activity", "setting": "[18]", "result": 99, "unit": "%"}, {"measurement": "Activity", "setting": "[19]", "result": 1.6, "unit": "%"}, {"measurement": "Activity", "setting": "[20]", "result": 46, "unit": "%"}, {"measurement": "Activity", "setting": "[21]", "result": 2.2, "unit": "%"}, {"measurement": "Activity", "setting": "[22]", "result": 2.4, "unit": "%"}, {"measurement": "Activity", "setting": "[23]", "result": 0.8, "unit": "%"}, {"measurement": "Activity", "setting": "[24]", "result": 74, "unit": "%"}]}
